Patent publication US20240083896A1, “Nitrogen Containing 2,3-Dihydroquinazolinone Compounds as Nav1.8 Inhibitors” (GlaxoSmithKline Intellectual Property Development Limited, priority 2020, published 2024)

Molecular target: human Nav1.8 (Homo sapiens (Human), UniProt Q9Y5Y9)
Assay: QPatch 48 HTX electrophysiology assay, half inactivation state voltage protocol (V1/2), HEK293-Nav1.8 cells
Type: cell-based
Details: HEK293 cells expressing human Nav1.8, human Navβ1 and human TREK1; V1/2 protocol, P2 current; IC50 in molar; average where more than one run
Procedure: Human embryonic kidney 293 cells (HEK293) expressing human Nav1.8, human Navβ1 and human TREK1 (HEK293-Nav1.8) were grown at 37° C., 5% CO2 in 150 cm^2 flasks. HEK293-Nav1.8 were passaged every 2-3 days into T175 cell culture flasks when confluency reached 80-90%.
Pharmacological assessment of the compounds of the invention was performed using HEK293-Nav1.8 in combination with an assay developed on the QPatch 48 HTX electrophysiological system. HEK293-Nav1.8 were prepared on the day of use by removing culture media, washing in DPBS, adding Accutase (2 ml to cover the surface, aspirate 1 ml then 1.5 min at 37° C.) followed by addition of CHO-SFM II to stop the enzyme digestion and in order to obtain a suspension of 3×10^6 cell/mL.
Compound was prepared in an extracellular solution of the following composition: NaCl (145 mM), KCl (4 mM), CaCl2 (2 mM), MgCl2 (2 mM), HEPES (1 mM), Glucose (10 mM), pH 7.4 with NaOH Osmolality 300 mOsM/L. The intracellular solution was used of the following composition: CsF (115 mM), CsCl (20 mM), NaCl (5 mM), EGTA (10 mM), HEPES (10 mM), Sucrose (20 mM), pH 7.2 with CsOH Osmolality 310 mOsm/L.
Utilizing the voltage-clamp mode in the QPatch 48 HTX system a half inactivation state voltage protocol (V1/2) was used to determine pharmacological activity of compounds of the invention at Nav1.8 ion channels. A V1/2 protocol was utilized with the following voltage steps: a holding voltage of −100 mV was established followed by a 20 ms voltage step to 0 mV (P1), followed by an inactivating voltage step at −46 mV for 8 seconds, followed by a step to −100 mV for 20 ms, before a 20 ms step to 0 mV (P2) before returning to the holding voltage of −100 mV. This voltage protocol was repeated at a frequency of 0.07 Hz., current magnitude was quantified at the P2 step throughout the recording. Inhibition of the measured current amplitude with the compounds of the invention was analyzed by fitting a 4-8 point dose-response curve allowing determination of the fifty percent inhibition concentration (IC50). Within the QPatch HTX software, P2 current was normalized according to measurements made at baseline after compound and after positive reference compound and fit to the following equation: […]
To assess current run-down over the course of the experiment vehicle-only wells were utilized and the normalized current with vehicle-only (n.IVEH) was determined. To correct the compound response for run-down, the currents were corrected according the following formula: […]
Compounds of the invention were tested for activity against […]. Potency of the compounds of the invention is reported as a pIC50 value. The pIC50 value is the negative log of the IC50 value, wherein the IC50 value is the half maximal inhibitory concentration measured in molar (M). For compounds tested in more than one experimental run, the pIC50 value is reported as an average.

Chain of human Nav1.8 (Q9Y5Y9 whole entry): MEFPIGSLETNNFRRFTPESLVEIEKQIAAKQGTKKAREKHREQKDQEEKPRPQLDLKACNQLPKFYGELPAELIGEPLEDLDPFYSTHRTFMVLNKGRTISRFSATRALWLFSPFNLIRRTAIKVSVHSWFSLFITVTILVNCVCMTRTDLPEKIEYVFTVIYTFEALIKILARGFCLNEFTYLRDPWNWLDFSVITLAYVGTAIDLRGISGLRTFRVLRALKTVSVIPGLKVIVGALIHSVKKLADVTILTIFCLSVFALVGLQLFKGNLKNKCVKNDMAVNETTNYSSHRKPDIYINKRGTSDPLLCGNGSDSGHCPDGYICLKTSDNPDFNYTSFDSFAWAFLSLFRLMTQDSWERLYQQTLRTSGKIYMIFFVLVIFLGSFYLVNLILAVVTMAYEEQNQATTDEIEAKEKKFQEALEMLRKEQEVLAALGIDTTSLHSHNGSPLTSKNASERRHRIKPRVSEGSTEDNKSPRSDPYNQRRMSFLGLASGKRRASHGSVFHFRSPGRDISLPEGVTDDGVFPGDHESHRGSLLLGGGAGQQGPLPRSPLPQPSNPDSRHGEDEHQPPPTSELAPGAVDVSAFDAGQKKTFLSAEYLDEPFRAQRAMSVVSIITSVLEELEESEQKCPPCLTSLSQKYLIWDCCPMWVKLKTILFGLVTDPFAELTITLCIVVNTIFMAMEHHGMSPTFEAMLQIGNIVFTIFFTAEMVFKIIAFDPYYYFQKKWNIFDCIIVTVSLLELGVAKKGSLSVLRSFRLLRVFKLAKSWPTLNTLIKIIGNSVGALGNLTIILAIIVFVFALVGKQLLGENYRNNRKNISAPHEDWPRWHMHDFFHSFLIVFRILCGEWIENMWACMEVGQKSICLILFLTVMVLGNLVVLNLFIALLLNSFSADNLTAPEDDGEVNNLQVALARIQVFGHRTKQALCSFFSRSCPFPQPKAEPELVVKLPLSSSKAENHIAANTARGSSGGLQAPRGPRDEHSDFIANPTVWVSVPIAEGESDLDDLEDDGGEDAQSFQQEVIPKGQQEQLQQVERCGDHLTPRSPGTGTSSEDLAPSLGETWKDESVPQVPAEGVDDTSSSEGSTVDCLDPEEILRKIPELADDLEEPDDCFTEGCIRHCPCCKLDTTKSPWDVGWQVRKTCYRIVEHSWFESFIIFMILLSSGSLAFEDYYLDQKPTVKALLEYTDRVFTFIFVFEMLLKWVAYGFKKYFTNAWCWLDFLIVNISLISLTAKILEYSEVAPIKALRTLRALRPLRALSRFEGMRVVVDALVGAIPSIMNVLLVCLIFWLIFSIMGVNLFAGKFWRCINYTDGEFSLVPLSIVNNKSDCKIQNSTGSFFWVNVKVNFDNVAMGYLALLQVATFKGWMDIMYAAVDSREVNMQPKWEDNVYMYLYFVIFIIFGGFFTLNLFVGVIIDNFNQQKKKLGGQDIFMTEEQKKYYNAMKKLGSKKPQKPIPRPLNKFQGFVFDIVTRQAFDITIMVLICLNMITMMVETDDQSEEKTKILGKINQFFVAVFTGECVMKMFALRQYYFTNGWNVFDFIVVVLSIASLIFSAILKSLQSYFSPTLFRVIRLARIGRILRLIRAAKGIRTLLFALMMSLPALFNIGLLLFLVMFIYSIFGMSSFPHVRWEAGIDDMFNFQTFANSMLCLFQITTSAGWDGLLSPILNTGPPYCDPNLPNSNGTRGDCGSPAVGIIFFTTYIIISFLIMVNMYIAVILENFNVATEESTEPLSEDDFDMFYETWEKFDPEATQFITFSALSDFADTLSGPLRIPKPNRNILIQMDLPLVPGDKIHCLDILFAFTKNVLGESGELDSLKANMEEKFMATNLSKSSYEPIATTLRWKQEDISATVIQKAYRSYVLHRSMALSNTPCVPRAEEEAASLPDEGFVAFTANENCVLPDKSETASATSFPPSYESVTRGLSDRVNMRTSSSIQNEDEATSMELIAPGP
Chain of human Nav1.8 (Q07699 19-218 partner): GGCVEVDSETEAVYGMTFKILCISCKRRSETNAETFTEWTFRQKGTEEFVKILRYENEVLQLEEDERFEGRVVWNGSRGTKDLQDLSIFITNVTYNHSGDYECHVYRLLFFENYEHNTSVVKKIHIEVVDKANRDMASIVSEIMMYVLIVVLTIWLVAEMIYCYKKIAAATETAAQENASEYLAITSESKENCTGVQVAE

| [Nav1.8] pIC50 | Structure (SMILES) |
| --- | --- |
| 7.2 | Cc1[nH]c(=O)ccc1N1CN(c2ccc(F)cc2C(C)C)c2cnc(C(F)(F)F)cc2C1=O [Example 5, 1-(4-Fluoro-2-isopropylphenyl)-3-(2-methyl-6-oxo-1,6-dihydropyridin-3-yl)-6-(trifluoromethyl)-2,3-dihydropyrido[3,4-d]pyrimidin-4(1H)-one] |
| 7 | Cc1[nH]c(=O)ccc1N1CN(c2ccc(F)cc2C(C)C)c2cnc(Cl)cc2C1=O [Example 3, 6-Chloro-1-(4-fluoro-2-isopropylphenyl)-3-(2-methyl-6-oxo-1,6-dihydropyridin-3-yl)-2,3-dihydropyrido[3,4-d]pyrimidin-4(1H)-one] |
| 5.9 | Cc1cc(F)ccc1N1CN(c2ccc(=O)[nH]c2C)C(=O)c2ncc(C(F)(F)F)cc21 [Example 1, 1-(4-Fluoro-2-methylphenyl)-3-(2-methyl-6-oxo-1,6-dihydropyridin-3-yl)-7-(trifluoromethyl)-2,3-dihydropyrido[3,2-d]pyrimidin-4(1H)-one] |
| 6 | Cc1cc(F)ccc1N1CN(c2ccc(=O)[nH]c2C)C(=O)c2cnc(C(F)(F)F)nc21 [Example 2, 1-(4-Fluoro-2-methylphenyl)-3-(2-methyl-6-oxo-1,6-dihydropyridin-3-yl)-7-(trifluoromethyl)-2,3-dihydropyrimido[4,5-d]pyrimidin-4(1H)-one] |
| 6.8 | Cc1cc(F)ccc1N1CN(c2ccc(=O)[nH]c2C)C(=O)c2cnc(C(F)(F)F)cc21 [Example 4, 1-(4-Fluoro-2-methylphenyl)-3-(2-methyl-6-oxo-1,6-dihydropyridin-3-yl)-7-(trifluoromethyl)-2,3-dihydropyrido[4,3-d]pyrimidin-4(1H)-one] |
| 5.3 | Cc1cc(F)ccc1N1CN(c2ccc(=O)[nH]c2C)C(=O)c2ccncc21 [Example 12, 1-(4-Fluoro-2-methylphenyl)-3-(2-methyl-6-oxo-1,6-dihydropyridin-3-yl)-2,3-dihydropyrido[3,4-d]pyrimidin-4(1H)-one] |
| 6.6 | Cc1cc(F)ccc1N1CN(c2ccc(=O)[nH]c2C)C(=O)c2cnc(Cl)cc21 [Example 18, 7-Chloro-1-(4-fluoro-2-methylphenyl)-3-(2-methyl-6-oxo-1,6-dihydropyridin-3-yl)-2,3-dihydropyrido[4,3-d]pyrimidin-4(1H)-one] |
| 5.4 | Cc1cc(F)ccc1N1CN(c2ccc(=O)[nH]c2C)C(=O)c2cc(C#N)ncc21 [Example 22, 1-(4-Fluoro-2-methylphenyl)-3-(2-methyl-6-oxo-1,6-dihydropyridin-3-yl)-4-oxo-1,2,3,4-tetrahydropyrido[3,4-d]pyrimidine-6-carbonitrile] |
| 5.4 | Cc1cc(F)ccc1N1CN(c2ccc(=O)[nH]c2C)C(=O)c2cnc(C#N)cc21 [Example 19, 1-(4-Fluoro-2-methylphenyl)-3-(2-methyl-6-oxo-1,6-dihydropyridin-3-yl)-4-oxo-1,2,3,4-tetrahydropyrido[4,3-d]pyrimidine-7-carbonitrile] |
| 7.1 | CCc1cc(F)ccc1N1CN(c2ccc(=O)[nH]c2C)C(=O)c2cc(C(F)(F)F)ncc21 [Example 14, 1-(2-Ethyl-4-fluorophenyl)-3-(2-methyl-6-oxo-1,6-dihydropyridin-3-yl)-6-(trifluoromethyl)-2,3-dihydropyrido[3,4-d]pyrimidin-4(1H)-one] |
| 7 | Cc1cc(F)ccc1N1CN(c2ccc(=O)[nH]c2C)C(=O)c2cc(C(F)(F)F)ncc21 [Example 6, 1-(4-Fluoro-2-methylphenyl)-3-(2-methyl-6-oxo-1,6-dihydropyridin-3-yl)-6-(trifluoromethyl)-2,3-dihydropyrido[3,4-d]pyrimidin-4(1H)-one] |
| 6.6 | Cc1cc(F)ccc1N1CN(c2ccc(=O)[nH]c2C)C(=O)c2cc(Cl)ncc21 [Example 15, 6-Chloro-1-(4-fluoro-2-methylphenyl)-3-(2-methyl-6-oxo-1,6-dihydropyridin-3-yl)-2,3-dihydropyrido[3,4-d]pyrimidin-4(1H)-one] |

The remaining lines, values behind:

| Structure (SMILES) | [Nav1.8] pIC50 |
| --- | --- |
| Cc1[nH]c(=O)ccc1N1CN(c2ccc(F)c(F)c2C)c2cnc(C(F)(F)F)cc2C1=O [Example 17, 1-(3,4-Difluoro-2-methylphenyl)-3-(2-methyl-6-oxo-1,6-dihydropyridin-3-yl)-6-(trifluoromethyl)-2,3-dihydropyrido[3,4-d]pyrimidin-4(1H)-one] | 7.2 |
| Cc1[nH]c(=O)ccc1N1CN(c2ccc(F)cc2C(C)C)c2ccc(Cl)nc2C1=O [Example 9, 6-Chloro-1-(4-fluoro-2-isopropylphenyl)-3-(2-methyl-6-oxo-1,6-dihydropyridin-3-yl)-2,3-dihydropyrido[3,2-d]pyrimidin-4(1H)-one] | 5.8 |
| Cc1cc(F)ccc1N1CN(c2ccc(=O)[nH]c2C)C(=O)c2nc(C(F)(F)F)cnc21 [Example 8, 1-(4-Fluoro-2-methylphenyl)-3-(2-methyl-6-oxo-1,6-dihydropyridin-3-yl)-6-(trifluoromethyl)-2,3-dihydropteridin-4(1H)-one] | 5.1 |
| CCc1c(N2CN(c3ccc(=O)[nH]c3C)C(=O)c3cc(C(F)(F)F)ncc32)ccc(F)c1F [Example 10, 1-(2-Ethyl-3,4-difluorophenyl)-3-(2-methyl-6-oxo-1,6-dihydropyridin-3-yl)-6-(trifluoromethyl)-2,3-dihydropyrido[3,4-d]pyrimidin-4(1H)-one] | 7.5 |
| Cc1cc(OC(F)(F)F)ccc1N1CN(c2ccc(=O)[nH]c2C)C(=O)c2cc(C(F)(F)F)ncc21 [Example 16, 1-(2-Methyl-4-(trifluoromethoxy)phenyl)-3-(2-methyl-6-oxo-1,6-dihydropyridin-3-yl)-6-(trifluoromethyl)-2,3-dihydropyrido[3,4-d]pyrimidin-4(1H)-one] | 7.9 |
| Cc1cc(F)ccc1N1CN(c2cc(F)c(=O)[nH]c2C)C(=O)c2cc(C(F)(F)F)ncc21 [Example 11, 3-(5-Fluoro-2-methyl-6-oxo-1,6-dihydropyridin-3-yl)-1-(4-fluoro-2-methylphenyl)-6-(trifluoromethyl)-2,3-dihydropyrido[3,4-d]pyrimidin-4(1H)-one] | 6.5 |
| Cc1cc(OC(F)(F)F)ccc1N1CN(c2cc(F)c(=O)[nH]c2C)C(=O)c2cc(C(F)(F)F)ncc21 [Example 21, 3-(5-Fluoro-2-methyl-6-oxo-1,6-dihydropyridin-3-yl)-1-(2-methyl-4-(trifluoromethoxy)phenyl)-6-(trifluoromethyl)-2,3-dihydropyrido[3,4-d]pyrimidin-4(1H)-one] | 7.4 |
| Cc1c[n+]([O-])ccc1N1CN(c2ccc(OC(F)(F)F)cc2C)c2cnc(C(F)(F)F)cc2C1=O [Example 23, 3-Methyl-4-(1-(2-methyl-4-(trifluoromethoxy)phenyl)-4-oxo-6-(trifluoromethyl)-1,4-dihydropyrido[3,4-d]pyrimidin-3(2H)-yl)pyridine 1-oxide] | 6.7 |
| Cc1cc(F)ccc1N1CN(c2ccc(=O)[nH]c2C)C(=O)c2ncc(C(F)(F)F)nc21 [Example 7, 1-(4-Fluoro-2-methylphenyl)-3-(2-methyl-6-oxo-1,6-dihydropyridin-3-yl)-7-(trifluoromethyl)-2,3-dihydropteridin-4(1H)-one] | 5.4 |
| CCc1cc(F)ccc1N1CN(c2ccc(=O)[nH]c2C)C(=O)c2cnc(C(F)(F)F)cc21 [Example 20, 1-(2-Ethyl-4-fluorophenyl)-3-(2-methyl-6-oxo-1,6-dihydropyridin-3-yl)-7-(trifluoromethyl)-2,3-dihydropyrido[4,3-d]pyrimidin-4(1H)-one] | 7.1 |
